Test results: patent US9598393B2, “Structural variants of mycolactones for use in modulating inflammation, immunity and pain” (priority 2011, dated 2017)
Like-named read-outs stand apart in the source and are kept apart here.

Assays:
[1] = tested on: CD62-L receptor expression by human peripheral blood cells (PBLs); assay: T cell homing: expression of CD62-L receptor, flow cytometry; format: cell-based; conditions: for CD62-L expression (MFI: mean fluorescence intensity) (D) % relative to control / IC50: human PBLs, 72 h; for IC50: % inhibition relative to control, read-out: CD62-L expression (D): IC50 value (concentration at which the compound induces 50% of mycolactone maximal activity); for CD62-L expression (D): corresponding % of mycolactone activity (in brackets): relative to mycolactone (100%)
Description: (D) The effect of mycolactone and variants on T cell homing was assessed through their inhibitory effect on the expression of CD62-L receptor by human peripheral blood cells (PBLs). Human PBLs were isolated from total blood by Ficoll density gradient centrifugation. They were incubated in 96-well plates (10^5 cells/well in RPMI 1640 medium supplemented with 10% fetal calf serum and 2 mM L-Glutamine) with mycolactone or variant for 72 h. Cells were then fixed for 20 min in 4% paraformaldehyde (PFA) and stained with an anti-CD62-L antibody coupled with phycoerythrin in a solution of PBS, BSA 0.5%, saponin 0.05%, then analysed by flow cytometry.

[2] = tested on: IL-2 production by Jurkat T cells; assay: Immunosuppressive activity: activation-induced IL-2 production, ELISA; format: cell-based, human; conditions: for Cytokine production (M.A.: mean absorbance) (C) % relative to control / IC50: Jurkat T cells; for Cytokine production (M.A.: mean absorbance) (C) % relative to control: PMA + calcium ionophore, IL-2 ELISA; for IC50: IL-2, % inhibition relative to control, read-out: Cytokine production (C): IC50 value (concentration at which the compound induces 50% of mycolactone maximal activity); for Cytokine production (C): corresponding % of mycolactone activity (in brackets): relative to mycolactone (100%)
Description: (C) The immunosuppressive activity of mycolactone and variants was measured on Jurkat T cells (ATCC®; TIB-152™ clone E6-1), as models of human T lymphocytes. Cells were inoculated in 96-well plates (5×10^5 cells/well in RPMI 1640 medium supplemented with 10% fetal calf serum and 2 mM L-Glutamine) then incubated with serial dilutions of the various compounds for 4 h, and stimulated for 20 h with 50 ng/ml phorbol-12-myristate-13-acetate (PMA) and 1 μg/ml calcium ionophore. The production of IL-2 was then assessed in culture supernatants by ELISA.

[3] = tested on: epithelial HeLa cell line; assay: Cytopathic activity, MTT assay (effect on global cell metabolic activity); format: cell-based, human; conditions: for Metabolic activity (MA: mean absorbance) (A) % relative to control / IC50: HeLa cells, 48 h, MTT; for IC50: % inhibition relative to control, read-out: Metabolic activity (A): IC50 value (concentration at which the compound induces 50% of mycolactone maximal activity); for Metabolic activity (A): corresponding % of mycolactone activity (in brackets): relative to mycolactone (100%)
Description: (A) The cytopathic activity of mycolactone and variants was assessed in a [3-(4,5-Dimethylthiazol-2-yl)-2,5-Diphenyltetrazolium Bromide] (MTT) assay, using the epithelial HeLa cell line (ATCC®; CCL-2) as a model. Briefly, HeLa cells were plated in 96-well plates (10^4 cells/well) in Dulbecco's Modified Eagle culture medium supplemented with 10% fetal calf serum and 2 mM L-Glutamine. After 16 h, mycolactone or variants dilutions (final concentration 0.4-8 μM) were added to the wells, and incubated with the cells for 48 h, prior to the addition of MTT at 50 μg/ml. After 4 h, culture supernatants were removed and the formed formazan crystals dissolved in dimethyl sulfoxide (DMSO) for absorbance measurement.

[4] = tested on: HeLa cell; assay: Cytotoxicity by Trypan Blue dye exclusion (cell viability); format: cell-based, human
Description: (B) HeLa cell death being negligible in the concentration and time frame conditions used in (A), the cytotoxicity of 16 μM mycolactone and variants was evaluated after 48 h of incubation by cell exclusion of the Trypan Blue dye. Here, one part of Trypan blue (0.4% in phosphate-buffered saline PBS) was mixed with one part cell suspension (recovered from cell culture wells by trypsin treatment). The mixture was incubated for 3 min at room temperature and unstained (viable) and stained (nonviable) cells counted separately with a hemacytometer.

Compound	CD62-L expression (MFI: mean fluorescence intensity) (D) % relative to control ([1]; 4 μM) [%]	CD62-L expression (MFI: mean fluorescence intensity) (D) % relative to control ([1]; 8 μM) [%]	Cytokine production (M.A.: mean absorbance) (C) % relative to control ([2]; 0.4 μM) [%]	Cytokine production (M.A.: mean absorbance) (C) % relative to control ([2]; 4 μM) [%]	Cytokine production (M.A.: mean absorbance) (C) % relative to control ([2]; 8 μM) [%]	IC50 ([2]; Homo sapiens) [µM]	Cytokine production (C): corresponding % of mycolactone activity (in brackets) [2] [%]	cytopathic activity compared to compound 20a [3]	Metabolic activity (MA: mean absorbance) (A) % relative to control ([3]; 0.4 μM) [%]	Metabolic activity (MA: mean absorbance) (A) % relative to control ([3]; 4 μM) [%]	Metabolic activity (MA: mean absorbance) (A) % relative to control ([3]; 8 μM) [%]	IC50 ([3]; Homo sapiens) [µM]	Metabolic activity (A): corresponding % of mycolactone activity (in brackets) [3] [%]	cytotoxic activity compared to compound 20a [4]	CD62-L expression (D): corresponding % of mycolactone activity (in brackets) [1] [%]	IC50 [2] [µM]	IC50 [3] [µM]	IC50 ([1]; T-cell) [µM]	also measured
CC(=C/C=C/C(C)=C/C[C@@H](O)CC(C)O)C=C(C)/C=C/C(=O)O[C@H]1CCCC(=O)O[C@@H]([C@@H](C)C/C(C)=C/[C@@H](C)[C@H](O)C[C@@H](C)O)C/C=C/C[C@@H]1C (stereo in doubt) [Compound 20d, (6S,7S,9E,12R)-12-[(2S,4E,6R,7R,9R)-7,9-dihydroxy-4,6-dimethyldec-4-en-2-yl]-7-methyl-2-oxo-1-oxacyclododec-9-en-6-yl(2E,4E,6E,8E,10E,13R,15R)-13,15-dihydroxy-4,6,10-trimethylhexadeca-2,4,6,8,10-pentaenoate]	0	0	12	30	55	7.3	1.4	significantly reduced	0	20	25	> 16	< 20	significantly reduced					
2,2-difluoro-8-(4-{1-[(2S)-2-[(2R,4E,7S,8S)-8-hydroxy-7-methyl-12-oxo-1-oxacyclododec-4-en-2-yl]propyl]-1H-1,2,3-triazol-4-yl}butyl)-4,6,10,12-tetramethyl-1λ^5,3-diaza-2λ^4-boratricyclo[7.3.0.0^3,7]dodeca-1(12),4,6,8,10-pentaen-1-ylium [Compound 29]	100	100	18	70	95		3.3		0	30	40		20		1.5	3	16		IC50 [1]: 2 µM
CC(=C/C=C/C(C)=C/[C@H](O)[C@@H](O)C[C@H](C)O)C=C(C)/C=C/C(=O)O[C@H]1CCCC(=O)O[C@@H]([C@@H](C)C/C(C)=C/[C@@H](C)[C@H](O)C[C@@H](C)O)C/C=C/C[C@@H]1C (racemic) [Compound 20a, (6S,7S,9E,12R)-12-[(2S,4E,6R,7R,9R)-7,9-dihydroxy-4,6-dimethyldec-4-en-2-yl]-7-methyl-2-oxo-1-oxacyclododec-9-en-6-yl(2E,4E,6E,8E,10E,12S,13S,15S)-12,13,15-trihydroxy-4,6,10-trimethylhexadeca-2,4,6,8,10-pentaenoate]			0	40	70	6	1.6		0	10	30	14	25						cytopathic activity, reduction compared to mycolactones A/B ([3]; human): 4 fold; cytotoxicity compared to mycolactones A/B ([4]; at 16 μM): equivalent cytotoxicity
2,2-difluoro-4,6,10,12-tetramethyl-8-(4-{1-[(2S)-2-[(2R,4E,7S,8S)-7-methyl-12-oxo-8-{[(2E,4E,6E,8E,10E,12S,13S,15S)-12,13,15-trihydroxy-4,6,10-trimethylhexadeca-2,4,6,8,10-pentaenoyl]oxy}-1-oxacyclododec-4-en-2-yl]propyl]-1H-1,2,3-triazol-4-yl}butyl)-1λ^5,3-diaza-2λ^4-boratricyclo[7.3.0.0^3,7]dodeca-1(12),4,6,8,10-pentaen-1-ylium [Compound 28]			20	50	70		2.5		0	20	35		< 20			4	> 16		
C/C(=C\[C@@H](C)[C@H](O)C[C@@H](C)O)C[C@H](C)[C@H]1C/C=C/C[C@H](C)[C@@H](O)CCCC(=O)O1 [Compound 11c, (6 S,7 S,9E,12R)-12-[(2S,4E,6R,7R,9R)-7,9-dihydroxy-4,6-dimethyldec-4-en-2-yl]-6-hydroxy-7-methyl-1-oxacyclododec-9-en-2-one]	20	40	0	30	50	8	1.2		0	30	40	16	20		0.2			16	inhibition of CD62-L expression by lymphocytes [1]: significant inhibition; inhibition of IL-2 production by lymphocytes [2]: significant inhibition; effect on the metabolic activity of HeLa cells [3]: showed inhibitory effect; cytotoxicity ([4]; in the conditions tested): not cytotoxic
CC(=C/C=C/C(C)=C/[C@@H](O)[C@H](O)C[C@@H](C)O)C=C(C)/C=C/C(=O)O[C@H]1CCCC(=O)O[C@@H]([C@@H](C)C/C(C)=C/[C@@H](C)[C@H](O)C[C@@H](C)O)C/C=C/C[C@@H]1C (racemic) [Compound 20c, (6S,7S,9E,12R)-12-[(2 S,4E,6R,7R,9R)-7,9-dihydroxy-4,6-dimethyldec-4-en-2-yl]-7-methyl-2-oxo-1-oxacyclododec-9-en-6-yl(2E,4E,6E,8E,10E,12R,13R,15R)-12,13,15-trihydroxy-4,6,10-trimethylhexadeca-2,4,6,8,10-pentaenoate]	0	10	18	35	65	6.5	1.5	significantly reduced	0	20	25	> 16	< 20	significantly reduced	< 0.2			> 16	
